By residual activity is commonly meant the signal under treatment as a percentage of the control signal.

Assay in all cases: Dundee kinase panel
Common to all, as to assay type: biochemical
Conditions in all cases: for remaining activity at 1 µM: read-out: residual activity

One assay addresses T1, MNK2 (Homo sapiens, UniProt Q9HBH9).
T1 construct: lines 1-140) and Reaction Biology
The method, then:
(§1) Compounds were screened at 1 μM. For key hits, pIC50 values were then determined by HTRF as above. […] Stability in mouse and human liver microsomes was determined by Cyprotex.

The next assay has as its target T2, TAK1 (Homo sapiens, UniProt O43318).
T2 construct: lines 1-140) and Reaction Biology
T2 sequence (O43318 1-303 limits assumed): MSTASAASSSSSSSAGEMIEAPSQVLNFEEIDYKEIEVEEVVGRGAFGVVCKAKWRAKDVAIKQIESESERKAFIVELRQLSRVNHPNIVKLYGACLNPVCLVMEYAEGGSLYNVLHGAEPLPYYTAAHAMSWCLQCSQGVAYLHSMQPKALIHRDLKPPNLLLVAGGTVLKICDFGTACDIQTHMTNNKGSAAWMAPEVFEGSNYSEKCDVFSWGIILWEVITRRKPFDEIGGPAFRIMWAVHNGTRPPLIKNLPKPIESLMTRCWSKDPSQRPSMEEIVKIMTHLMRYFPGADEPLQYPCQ
As for the experimental part: as §1

For another assay, the target named is T3, ULK1 (Homo sapiens, UniProt O75385).
T3 construct: lines 1-140) and Reaction Biology
T3 sequence (O75385 1-1050): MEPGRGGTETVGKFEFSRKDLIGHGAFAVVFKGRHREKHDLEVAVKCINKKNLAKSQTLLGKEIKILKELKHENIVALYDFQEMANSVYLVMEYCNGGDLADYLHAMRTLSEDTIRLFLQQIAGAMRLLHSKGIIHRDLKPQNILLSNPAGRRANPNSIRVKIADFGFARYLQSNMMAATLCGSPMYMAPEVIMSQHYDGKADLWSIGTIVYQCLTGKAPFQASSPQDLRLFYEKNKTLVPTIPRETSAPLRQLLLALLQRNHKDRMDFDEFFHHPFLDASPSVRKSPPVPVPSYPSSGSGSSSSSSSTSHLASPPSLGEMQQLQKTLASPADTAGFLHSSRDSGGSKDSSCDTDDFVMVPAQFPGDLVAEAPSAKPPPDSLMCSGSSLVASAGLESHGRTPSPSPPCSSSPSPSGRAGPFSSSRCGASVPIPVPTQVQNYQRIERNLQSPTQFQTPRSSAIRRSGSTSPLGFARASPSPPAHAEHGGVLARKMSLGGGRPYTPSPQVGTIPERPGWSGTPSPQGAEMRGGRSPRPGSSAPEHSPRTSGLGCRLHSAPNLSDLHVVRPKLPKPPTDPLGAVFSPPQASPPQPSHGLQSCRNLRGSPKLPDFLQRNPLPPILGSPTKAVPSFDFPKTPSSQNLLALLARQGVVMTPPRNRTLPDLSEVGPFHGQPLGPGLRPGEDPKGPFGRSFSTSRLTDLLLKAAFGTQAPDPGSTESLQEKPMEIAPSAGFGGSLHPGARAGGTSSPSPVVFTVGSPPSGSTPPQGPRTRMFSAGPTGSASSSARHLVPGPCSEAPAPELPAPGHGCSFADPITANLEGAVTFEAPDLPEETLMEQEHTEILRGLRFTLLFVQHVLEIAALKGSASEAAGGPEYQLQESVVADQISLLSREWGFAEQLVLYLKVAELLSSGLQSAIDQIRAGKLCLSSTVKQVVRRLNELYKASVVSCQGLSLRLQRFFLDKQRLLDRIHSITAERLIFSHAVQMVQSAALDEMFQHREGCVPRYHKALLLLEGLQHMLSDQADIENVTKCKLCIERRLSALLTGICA
The method, then: as §1

A further assay concerns the target T4, GCK (Homo sapiens, UniProt Q12851).
T4 construct: lines 1-140) and Reaction Biology
T4 sequence (Q12851 1-820): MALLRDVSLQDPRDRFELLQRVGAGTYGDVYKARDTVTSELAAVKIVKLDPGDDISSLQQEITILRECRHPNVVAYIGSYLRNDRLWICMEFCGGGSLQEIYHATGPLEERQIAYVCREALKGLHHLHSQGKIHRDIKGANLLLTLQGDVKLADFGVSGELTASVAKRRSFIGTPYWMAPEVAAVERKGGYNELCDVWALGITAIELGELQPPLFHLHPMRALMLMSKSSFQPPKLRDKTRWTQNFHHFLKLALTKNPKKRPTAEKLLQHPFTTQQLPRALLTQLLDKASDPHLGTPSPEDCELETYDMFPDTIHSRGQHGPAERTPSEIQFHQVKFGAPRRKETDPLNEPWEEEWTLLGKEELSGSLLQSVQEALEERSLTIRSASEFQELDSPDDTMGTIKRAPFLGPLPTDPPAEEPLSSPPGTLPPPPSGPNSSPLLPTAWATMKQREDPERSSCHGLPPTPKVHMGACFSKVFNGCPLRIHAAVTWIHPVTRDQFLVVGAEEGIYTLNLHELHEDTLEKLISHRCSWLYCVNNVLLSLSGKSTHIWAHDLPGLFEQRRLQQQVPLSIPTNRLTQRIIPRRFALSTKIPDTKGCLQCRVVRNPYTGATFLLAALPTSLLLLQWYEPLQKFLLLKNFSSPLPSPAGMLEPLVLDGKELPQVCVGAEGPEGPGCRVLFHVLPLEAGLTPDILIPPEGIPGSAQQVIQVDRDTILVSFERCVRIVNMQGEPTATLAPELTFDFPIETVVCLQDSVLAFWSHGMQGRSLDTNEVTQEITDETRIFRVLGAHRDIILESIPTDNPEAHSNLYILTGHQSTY
As for the experimental part: as §1

T1 sequence (Q9HBH9 whole entry): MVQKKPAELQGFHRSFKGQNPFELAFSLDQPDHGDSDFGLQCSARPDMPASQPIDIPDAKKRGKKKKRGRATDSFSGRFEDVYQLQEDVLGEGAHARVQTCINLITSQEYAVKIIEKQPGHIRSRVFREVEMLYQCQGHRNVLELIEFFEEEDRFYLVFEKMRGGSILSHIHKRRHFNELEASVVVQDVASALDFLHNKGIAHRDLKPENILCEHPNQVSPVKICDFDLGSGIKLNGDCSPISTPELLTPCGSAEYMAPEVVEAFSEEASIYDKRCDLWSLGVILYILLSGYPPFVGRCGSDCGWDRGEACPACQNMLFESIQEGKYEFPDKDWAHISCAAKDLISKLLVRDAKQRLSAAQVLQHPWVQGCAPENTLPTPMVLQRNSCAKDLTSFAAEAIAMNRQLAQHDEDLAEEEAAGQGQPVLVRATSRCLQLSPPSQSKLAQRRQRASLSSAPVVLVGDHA

On to `Oc1ncnc2c1c(-c1ccccc1)cn2-c1ccccc1` [F1386-0303, 5,7-diphenyl-7H-pyrrolo[2,3-d]pyrimidin-4-ol], for which the remaining activity at 1 µM on MNK2 was 109%; at TAK1, 102%; on ULK1 it was 84%; on GCK it was 39%.
In the same order, the values of `O=C1Cc2c([nH]c3ccc(Br)cc23)-c2ccccc2N1` [Kenpaullone] are 125%, 113%, 107% and 95%.
On to `COCCOc1ccc(-c2cn(-c3ccccc3)c3nc[nH]c(=O)c23)cc1` [DMX-5804, 5-[4-(2-methoxy-ethoxy)-phenyl]-7-phenyl-3,7-dihydro-pyrrolo[2,3-d]pyrimidin-4-one], for which the remaining activity at 1 µM at MNK2 amounted to 111%; on TAK1, 61%; on ULK1 it was 82%; on GCK, 36%.
With `O=C1Nc2ccc(I)cc2/C1=C/c1cc(Br)c(O)c(Br)c1` [GW5074], the remaining activity at 1 µM on MNK2 was determined as 95%; on TAK1 it was 92%; on ULK1 it was 97%; at GCK, 60%.
For `Nc1ncc(C(=O)NC2CN(C(=O)C3CC3)C2)c2ccc(-c3cccc(F)c3)nc12` [GNE-495], the residual activity came to 64% at MNK2 (1 μM), 31% at TAK1 (1 μM), 110% at ULK1 (1 μM) and 18% on GCK (1 μM).

The record behind these values is publication PMC6458995, “MAP4K4 Inhibition Promotes Survival of Human Stem Cell-Derived Cardiomyocytes and Reduces Infarct Size In Vivo” (Cell Stem Cell, 2019).
